IC50 data for twelve compounds are collected here from patent publication US12281116B2, “HTT modulators for treating Huntington's disease” (CHDI Foundation, Inc., priority 2021, dated 2025).

The structures appear in SMILES notation.

This assay relates to tHTT (total HTT protein). Nature of the assay: Time-resolved FRET (HTRF) assay: Q48-Huntingtin and total-Huntingtin detection in GEN020 hESC lysates. Type of assay: cell-based. Conditions: tHTT activity; human embryonic stem cells GEN020 (mutant 48 Q repeat allele); test compounds 48 hours; read-out: HTT Lowering Activity (HTRF). How it is done: Time-resolved FRET assay: Q48-Huntingtin and total-Huntington detection Detection of endogenous HTT protein in cell lysates was performed using a protocol adapted from Weiss et al. See Weiss A et al. (2009). Single-step detection of mutant huntingtin in animal and human tissues: a bioassay for Huntington's disease. Anal. Biochem. 395(1): 8-15.
The multiplex assay was performed in human embryonic stem cells (GEN020 hESCs with mutant 48 Q repeat allele) which have been derived by Genea Biocells from human blastocysts of HD donors. Bradley C K et al. (2011). Derivation of Huntington's disease-affected human embryonic stem cell lines, Stem Cells Dev. 2011 March; 20(3):495-502. Cells were plated into 384-well collagen coated plates (10,000 cells per well) and left to adhere for 24 hours, test compounds were then added for 48 hours (37° C., 5% CO2), cells were then lysed, and the lysate was transferred to a black 384-well assay plate.
The assay plate included a combination of HTRF labelled monoclonal antibodies added to recognize discreet areas of the HTT protein, the Tb “donor” antibody (2B7-Tb: 0.2 ng/well) recognizes a sequence at the N-terminus of the protein, an Alexa488 “acceptor 1” antibody (MW1-Alexa488: 30 ng/well) recognizes an area in the polyQ region, whereas a d2 “acceptor 2” antibody (MAB2166-d2: 6 ng/well) recognizes a sequence beyond the polyQ region. These detection reagents were incubated with the cell lysate at room temperature for 4-6 hours before having their fluorescence quantified at 615 nm (donor) and 535 nm and 665 nm (acceptor 1 and 2 respectively). The donor/acceptor ratio between these signals indicated the relative quantities of mHTT and tHTT.
Results for various compounds described herein are provided in the Tables below. tHTT activity in this assay is categorized as 10-20 μM (−); 1-10 μM (+); 0.5-1 μM (++); 0.1-0.5 μM (+++); <0.1 μM (++++).
As for `CNC1C2CN(c3cnc(C(=O)Nc4cc(F)c5nc(C)cn5c4)cn3)CC21` (stereo not drawn) [Example 29, N-(8-Fluoro-2-methyl-imidazo[1,2-a]pyridin-6-yl)-5-[6-(methylamino)-3-azabicyclo[3.1.0]hexan-3-yl]pyrazine-2-carboxamide], the IC50 was below 100 nM. With `COc1cc2nn(C)cc2cc1NC(=O)c1cnc(N2CC3C(N)C3C2)cn1` (stereo not drawn) [Example 30, 5-(6-Amino-3-azabicyclo[3.1.0]hexan-3-yl)-N-(6-methoxy-2-methyl-indazol-5-yl)pyrazine-2-carboxamide], the IC50 was below 100 nM. With `Cc1cn2cc(NC(=O)c3cnc(N4CC[C@H](CNC5CC5)C4)cn3)c(F)c(C)c2n1` [Example 31, 5-[(3R)-3-[(cyclopropylamino)methyl]pyrrolidin-1-yl]-N-(7-fluoro-2,8-dimethyl-imidazo[1,2-a]pyridin-6-yl)pyrazine-2-carboxamide] the figure was below 100 nM.

For `Cc1cn2cc(NC(=O)c3cnc(N4CC5C(C4)C5N4CCCC4)cn3)cc(F)c2n1` (stereo not drawn) [Example 32, N-(8-Fluoro-2-methyl-imidazo[1,2-a]pyridin-6-yl)-5-(6-pyrrolidin-1-yl-3-azabicyclo[3.1.0]hexan-3-yl)pyrazine-2-carboxamide], the IC50 fell in the range of 500 to 1000 nM. The value for `CCNC1C2CN(c3cnc(C(=O)Nc4cn5cc(C)nc5c(OC)n4)cn3)CC21` (stereo not drawn) [Example 34, 5-(6-(ethylamino)-3-azabicyclo[3.1.0]hexan-3-yl)-N-(8-methoxy-2-methylimidazo[1,2-a]pyrazin-6-yl)pyrazine-2-carboxamide] was 100 to 500 nM. With `Cc1cn2cc(NC(=O)c3cnc(N4CC5C[C@@]5(N)C4)cn3)cc(F)c2n1` (stereo partly drawn) [Example 35, 5-((1S)-1-amino-3-azabicyclo[3.1.0]hexan-3-yl)-N-(8-fluoro-2-methylimidazo[1,2-a]pyridin-6-yl)pyrazine-2-carboxamide] the figure was 500 to 1000 nM; with `Cc1cn2cc(NC(=O)c3cnc(N4CC5C[C@]5(N)C4)cn3)cc(F)c2n1` (stereo partly drawn) [Example 36, 5-((1R)-1-amino-3-azabicyclo[3.1.0]hexan-3-yl)-N-(8-fluoro-2-methylimidazo[1,2-a]pyridin-6-yl)pyrazine-2-carboxamide], 100 to 500 nM; with `Cc1cn2cc(NC(=O)c3cnc(N4CC5C(C4)C5NC4CC4)cn3)cc(F)c2n1` (stereo not drawn) [Example 37, 5-[6-(Cyclopropylamino)-3-azabicyclo[3.1.0]hexan-3-yl]-N-(8-fluoro-2-methyl-imidazo[1,2-a]pyridin-6-yl)pyrazine-2-carboxamide], 100 to 500 nM. With `Cc1cn2cc(NC(=O)c3cnc(N4CC[C@@H](NC5CC5)C4=O)cn3)cc(F)c2n1` [Example 43, (R)-5-(3-(cyclopropylamino)-2-oxopyrrolidin-1-yl)-N-(8-fluoro-2-methylimidazo[1,2-a]pyridin-6-yl)pyrazine-2-carboxamide] the figure was 100 to 500 nM; with `Cc1cn2cc(NC(=O)c3cnc(N4CC[C@H](NC5CC5)C4=O)cn3)cc(F)c2n1` [Example 44, (S)-5-(3-(cyclopropylamino)-2-oxopyrrolidin-1-yl)-N-(8-fluoro-2-methylimidazo[1,2-a]pyridin-6-yl)pyrazine-2-carboxamide], 100 to 500 nM; with `Cc1cn2cc(NC(=O)c3cnc(N4CC(CN5CC(OCC(=O)NCCC6(CCN=[N+]=[N-])N=N6)C5)C4)cn3)cc(F)c2n1` [Example 45, 5-[3-[[3-[2-[2-[3-(2-azidoethyl)diazirin-3-yl]ethylamino]-2-oxo-ethoxy]azetidin-1-yl]methyl]azetidin-1-yl]-N-(8-fluoro-2-methyl-imidazo[1,2-a]pyridin-6-yl)pyrazine-2-carboxamide], 500 to 1000 nM. With `Cc1cn2cc(NC(=O)c3cnc(-n4cc(CNC5CC5)cn4)cn3)cc(F)c2n1` [Example 46, 5-(4-((Cyclopropylamino)methyl)-1H-pyrazol-1-yl)-N-(8-fluoro-2-methylimidazo[1,2-a]pyridin-6-yl)pyrazine-2-carboxamide], the IC50 fell in the range of 500 to 1000 nM.
